# Measured values from patent publication US20090203901A1, “Process for preparing pyrazole functionalized benzodiazepinones” (Roche Colorado Corporation, priority 2008, published 2009).
# Experiments:
# [1] = tested on: vascular endothelial cell proliferation; settings: endothelial versus tumor cell proliferation; cited from earlier work
# [2] = tested on: tumor growth and metastasis; settings: cited from earlier work
Structure (SMILES),melting point,half-maximal inhibition of vascular endothelial cell proliferation at lower concentration than tumor cell proliferation [1],tumor growth and metastasis in vivo [2]
"C=CCNc1cc(OC)c(F)cc1C(=O)c1ccccc1Cl [Example 9, 2-(Allylamino)-2′chloro-5-fluoro-4-methoxybenzophenone]",125 to 127 °C,,
"COc1cc(N)c(C(=O)c2ccccc2Cl)cc1F [Example 3a, 2-Amino-2′-chloro-5-fluoro-4-methoxybenzophenone]",130.5 to 132.5 °C,,
"COc1cc(F)c(C(=O)c2ccccc2Cl)cc1F [Example 1, 2′-Chloro-2,5-difluoro-4-methoxybenzophenone]",84 to 85 °C,,
COc1cc2c(cc1F)C(c1ccccc1Cl)=NCC(=O)N2,210 to 212.5 °C,,
COc1cc(NC(=O)CBr)c(C(=O)c2ccccc2Cl)cc1F,177 to 178 °C,,
CO[C@@H]1[C@H](OC(=O)NC(=O)CCl)CC[C@]2(CO2)[C@H]1[C@@]1(C)O[C@@H]1CC=C(C)C [AGM-1470],,4 logs,inhibits tumor growth and metastasis in vivo
"COc1cc(NCc2ccccc2)c(C(=O)c2ccccc2Cl)cc1F [Example 2, 2-(Benzylamino)-2′-chloro-5-fluoro-4-methoxybenzophenone]",122 to 124 °C,,
